Results taken from patent US20230174523A1, “BENZENESULFONAMIDE DERIVATIVES AS TRAP1 MODULATORS AND USES THEREOF” (Amathus Therapeutics, Inc., priority 2020, published 2023).

Biological target: T1, TRAP1 enzyme (Homo sapiens, UniProt Q12931)
T1 sequence (Q12931 60-704): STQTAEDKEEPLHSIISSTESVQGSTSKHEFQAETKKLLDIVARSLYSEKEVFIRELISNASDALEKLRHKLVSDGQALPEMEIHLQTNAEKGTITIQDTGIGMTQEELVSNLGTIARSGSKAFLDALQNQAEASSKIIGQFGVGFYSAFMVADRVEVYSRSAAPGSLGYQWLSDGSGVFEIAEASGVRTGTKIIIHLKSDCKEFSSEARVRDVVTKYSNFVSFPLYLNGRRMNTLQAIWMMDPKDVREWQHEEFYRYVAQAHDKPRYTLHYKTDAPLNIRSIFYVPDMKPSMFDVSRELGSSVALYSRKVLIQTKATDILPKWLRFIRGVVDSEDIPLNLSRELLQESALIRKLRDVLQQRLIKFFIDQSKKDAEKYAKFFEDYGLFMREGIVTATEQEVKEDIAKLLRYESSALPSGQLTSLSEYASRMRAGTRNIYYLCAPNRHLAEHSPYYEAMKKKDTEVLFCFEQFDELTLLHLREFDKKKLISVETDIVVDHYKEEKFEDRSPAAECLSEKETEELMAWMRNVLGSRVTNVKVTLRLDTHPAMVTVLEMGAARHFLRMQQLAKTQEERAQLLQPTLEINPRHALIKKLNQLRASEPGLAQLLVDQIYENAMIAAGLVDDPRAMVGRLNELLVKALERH
Test: ADP Glo assay of TRAP1 ATPase activity
Format: biochemical
Settings: for EC50: TRAP1 ATPase activation, 150 nM Trap1, 20 μM ATP, geometric mean, read-out: ADP GLO DRC: GeoMean EC50; for Emax: read-out: ADP GLO DRC: Mean Emax
Procedure: Potency of test compounds to modulate the ATPase activity of TRAP1 enzyme was evaluated using ADP Glo assay. The assay is based on quantification of the ADP generated from ATP in the ATPase reaction. The assay is performed in two steps: first, after the ATPase reaction, an equal volume of ADP-Glo™ Reagent is added to terminate the ATPase reaction and deplete the remaining ATP. Second, the Kinase Detection Reagent is added to simultaneously convert ADP to ATP and allow the newly synthesized ATP to be measured using a luciferase/luciferin reaction.
All the assays were carried out in a 384-well Proxiplate. The buffer used was 25 mM Pipes pH-7.5, 40 mM KCl, 0.05 mM MgCl2, 0.025% BSA, 0.316 mM EGTA, 0.003% Empigen, 0.01% Igepal. 150 nM Trap1 enzyme was incubated with various concentrations of the test compound (0.79 μM-100 μM) at 37° C. for 30 mins (except in blank wells). 20 μM ATP was added to each well to start the reaction. The plate was spun for 1 min at 1200 rpm and then incubated at 37° C. for 60 mins. 5 μl of ADP Glo reagent was added to all the wells and spun the plate for 1 min at 1200 rpm and kept it on a shaker at ambient temperature for 60 mins. 10 μl of kinase detection mix was added to all the wells and the plate was read for Luminescence at 495 nm. The amount of ADP released was estimated from ATP/ADP standard curve generated at the same experimental conditions. Emax (Maximal percent activation) and EC50 (concentration for half maximal activation) were estimated by fitting the dose response data to a sigmoidal curve fitting equation using Graphpad Prism software V. 8.

Structure (SMILES) | EC50 | Emax
COc1ccc(NC(=O)c2cnc(Cl)cc2Cl)cc1S(=O)(=O)Nc1c(C)cccc1C [Compound 1082] | 20 to 100 µM | 200 to 300%
COc1ccc(NC(=O)c2c(I)cnn2C)cc1S(=O)(=O)Nc1c(C)cccc1C [Compound 1088] | 20 to 100 µM | 160 to 199%
COc1ccc(NC(=O)c2cccc(C(=O)N(C)C)c2)cc1S(=O)(=O)Nc1c(C)cccc1C [Compound 1095] | 20 to 100 µM | 160 to 199%
COc1ccc(NC(=O)c2cccc(C#N)c2Cl)cc1S(=O)(=O)Nc1c(C)cccc1C [Compound 1100] | 10 to 20 µM | 200 to 300%
COc1ccc(NC(=O)c2cc(C)cs2)cc1S(=O)(=O)Nc1c(C)cccc1C [Compound 1101] | 10 to 20 µM | 160 to 199%
COc1ccc(NC(=O)c2ccnn2C(C)C)cc1S(=O)(=O)Nc1c(C)cccc1C [Compound 1104] | 10 to 20 µM | 200 to 300%
COc1ccc(NC(=O)c2cnn(-c3cccnc3)c2)cc1S(=O)(=O)Nc1c(C)cccc1C [Compound 1106] | 10 to 20 µM | 200 to 300%
COc1ccc(NC(=O)c2cncc(Br)c2C)cc1S(=O)(=O)Nc1c(C)cccc1C [Compound 1107] | 10 to 20 µM | 200 to 300%
COc1ccc(NC(=O)c2cn(C)c3ncccc23)cc1S(=O)(=O)Nc1c(C)cccc1C [Compound 1108] | 10 to 20 µM | > 300%
COc1ccc(NC(=O)c2nn(C(C)C)c3ccccc23)cc1S(=O)(=O)Nc1c(C)cccc1C [Compound 1109] | < 10 µM | 123 to 159%
COc1ccc(NC(=O)c2c(C(F)(F)F)coc2C)cc1S(=O)(=O)Nc1c(C)cccc1C [Compound 1111] | 10 to 20 µM | 160 to 199%
COc1ccc(NC(=O)c2noc3c2CCCC3)cc1S(=O)(=O)Nc1c(C)cccc1C [Compound 1114] | 10 to 20 µM | 200 to 300%
COc1ccc(NC(=O)c2sc(Br)nc2C)cc1S(=O)(=O)Nc1c(C)cccc1C [Compound 1115] | 10 to 20 µM | 200 to 300%
COc1ccc(NC(=O)c2ccc3nc(C)ccc3c2)cc1S(=O)(=O)Nc1c(C)cccc1C [Compound 1118] | 10 to 20 µM | 200 to 300%
COc1ccc(NC(=O)c2ccc(S(=O)(=O)N(C)C)cc2)cc1S(=O)(=O)Nc1c(C)cccc1C [Compound 1120] | 20 to 100 µM | 160 to 199%
COc1ccc(NC(=O)c2ccoc2C(F)(F)F)cc1S(=O)(=O)Nc1c(C)cccc1C [Compound 1122] | 20 to 100 µM | 160 to 199%
COc1ccc(NC(=O)c2cccc(N3CCCC3=O)c2)cc1S(=O)(=O)Nc1c(C)cccc1C [Compound 1123] | 10 to 20 µM | 200 to 300%
COc1ccc(NC(=O)c2ccc3c(=O)n(C)cnc3c2)cc1S(=O)(=O)Nc1c(C)cccc1C [Compound 1124] | 10 to 20 µM | 200 to 300%
COc1ccc(NC(=O)c2cccc(-n3cncn3)c2)cc1S(=O)(=O)Nc1c(C)cccc1C [Compound 1126] | 10 to 20 µM | 160 to 199%
COc1ccc(NC(=O)c2ncc(OC(F)F)cc2Cl)cc1S(=O)(=O)Nc1c(C)cccc1C [Compound 1127] | 20 to 100 µM | 123 to 159%
COc1ccc(NC(=O)c2ccc(Br)nc2F)cc1S(=O)(=O)Nc1c(C)cccc1C [Compound 1131] | 20 to 100 µM | 123 to 159%
CCc1ncsc1C(=O)Nc1ccc(OC)c(S(=O)(=O)Nc2c(C)cccc2C)c1 [Compound 1137] | 20 to 100 µM | 160 to 199%
COc1ccc(NC(=O)c2cc(C#N)ccc2Br)cc1S(=O)(=O)Nc1c(C)cccc1C [Compound 1141] | 20 to 100 µM | 160 to 199%
COc1ccc(NC(=O)c2cnn3cccnc23)cc1S(=O)(=O)Nc1c(C)cccc1C [Compound 1147] | 20 to 100 µM | 200 to 300%
COc1ccc(NC(=O)c2cc(C)n(C(F)F)n2)cc1S(=O)(=O)Nc1c(C)cccc1C [Compound 1149] | 10 to 20 µM | 123 to 159%

Other lines, results leading:

EC50 | Emax | Structure (SMILES)
< 10 µM | 160 to 199% | COc1cc(C#N)cc(C(=O)Nc2ccc(OC)c(S(=O)(=O)Nc3c(C)cccc3C)c2)c1 [Compound 1090]
< 10 µM | 160 to 199% | COc1ccc(NC(=O)c2cc(F)ccc2OC(F)(F)F)cc1S(=O)(=O)Nc1c(C)cccc1C [Compound 1092]
< 10 µM | 200 to 300% | CCn1nc(C(C)C)cc1C(=O)Nc1ccc(OC)c(S(=O)(=O)Nc2c(C)cccc2C)c1 [Compound 1093]
< 10 µM | 200 to 300% | COc1ccc(NC(=O)c2cccc3ccoc23)cc1S(=O)(=O)Nc1c(C)cccc1C [Compound 1094]
10 to 20 µM | 123 to 159% | COc1ccc(NC(=O)c2cccnc2-c2cc(F)cc(F)c2)cc1S(=O)(=O)Nc1c(C)cccc1C [Compound 1096]
10 to 20 µM | 200 to 300% | COc1ccc(NC(=O)c2ncccc2-c2ccccc2)cc1S(=O)(=O)Nc1c(C)cccc1C [Compound 1098]
< 10 µM | 160 to 199% | COc1ccc(NC(=O)c2cn(C(C)C)cc2C(F)(F)F)cc1S(=O)(=O)Nc1c(C)cccc1C [Compound 1103]
< 10 µM | 160 to 199% | COc1ccc(NC(=O)c2cnn(-c3ccc(Cl)cc3)c2C)cc1S(=O)(=O)Nc1c(C)cccc1C [Compound 1110]
< 10 µM | 160 to 199% | COc1ccc2oc(C(=O)Nc3ccc(OC)c(S(=O)(=O)Nc4c(C)cccc4C)c3)cc2c1 [Compound 1112]
< 10 µM | 160 to 199% | COc1ccc(NC(=O)c2csc(-c3ccccc3)n2)cc1S(=O)(=O)Nc1c(C)cccc1C [Compound 1116]
< 10 µM | 123 to 159% | CCOc1cc(OCC)cc(C(=O)Nc2ccc(OC)c(S(=O)(=O)Nc3c(C)cccc3C)c2)c1 [Compound 1117]
< 10 µM | 160 to 199% | COc1ccc(NC(=O)c2ccc3c(c2)CCCO3)cc1S(=O)(=O)Nc1c(C)cccc1C [Compound 1121]
< 10 µM | 160 to 199% | COc1ccc(NC(=O)c2nc3c(C)cccc3s2)cc1S(=O)(=O)Nc1c(C)cccc1C [Compound 1125]
< 10 µM | 160 to 199% | COc1ccc(NC(=O)c2scc(C)c2Cl)cc1S(=O)(=O)Nc1c(C)cccc1C [Compound 1128]
< 10 µM | 160 to 199% | COc1ccc(NC(=O)c2csc(-c3cccs3)n2)cc1S(=O)(=O)Nc1c(C)cccc1C [Compound 1136]
< 10 µM | 123 to 159% | COc1ccc(NC(=O)c2nc(-c3ccccc3)oc2C)cc1S(=O)(=O)Nc1c(C)cccc1C [Compound 1139]
< 10 µM | 123 to 159% | COc1ccc(NC(=O)c2ccc(-c3ccc(F)cc3)cc2F)cc1S(=O)(=O)Nc1c(C)cccc1C [Compound 1142]
< 10 µM | 160 to 199% | COc1ccc(NC(=O)c2csc3c2CCCC3)cc1S(=O)(=O)Nc1c(C)cccc1C [Compound 1144]
< 10 µM | 123 to 159% | CCOc1c(F)c(F)cc(C(=O)Nc2ccc(OC)c(S(=O)(=O)Nc3c(C)cccc3C)c2)c1F [Compound 1145]
< 10 µM | 200 to 300% | COc1ccc(NC(=O)c2ccc3c(c2)n(C)c(=O)n3C)cc1S(=O)(=O)Nc1c(C)cccc1C [Compound 1146]
< 10 µM | 200 to 300% | CCc1ccnc(C(=O)Nc2ccc(OC)c(S(=O)(=O)Nc3c(C)cccc3C)c2)c1 [Compound 1151]
